Laboratory results from US6362218B1, “Brefeldin A derivatives” (Purdue Research Foundation, priority 1997, dated 2002).
≈ marks a conversion by molar mass, not a printed value. Where “and” joins values, the source holds several entries; their conditions need not be identical. Equal values may be shown once.

Key:
[1] = test system: SN12C; test: NCI human cancer cell line screen, antiproliferative activity, Renal SN12C; type: cell-based; conditions: concentration corresponding to 50% growth inhibition, read-out: cytotoxicity GI50, Renal SN12C
Method: (§1) The new synthesized brefeldin A prodrug candidates and analogs were examined for antiproliferative activity against human cancer cell lines in the National Cancer Institute screen, in which the activity of each compound was evaluated with approximately 55 different cancer cell lines of diverse tumor origins.

[2] = test system: all human cancer cell lines successfully tested; test: NCI screen, mean graph midpoint over approximately 55 cancer cell lines; type: cell-based; conditions: average GI50 for all cell lines tested (approximately 55), test range 10^-4 to 10^-8 molar
Method: as §1

[3] = test system: DU-145; test: NCI human cancer cell line screen, antiproliferative activity, Prostate DU-145; type: cell-based; conditions: concentration corresponding to 50% growth inhibition, read-out: cytotoxicity GI50, Prostate DU-145
Method: as §1

[4] = test system: HOP-62; test: NCI human cancer cell line screen, antiproliferative activity, Lung HOP-62; type: cell-based; conditions: concentration corresponding to 50% growth inhibition, read-out: cytotoxicity GI50, Lung HOP-62
Method: as §1

[5] = test system: SF-539; test: NCI human cancer cell line screen, antiproliferative activity, CNS SF-539; type: cell-based; conditions: concentration corresponding to 50% growth inhibition, read-out: cytotoxicity GI50, CNS SF-539
Method: as §1

[6] = Solubility of saturated solutions in distilled water, gravimetric; conditions: distilled water at room temperature, saturated solution
[7] = test system: OVCAR-3; test: NCI human cancer cell line screen, antiproliferative activity, Ovarian OVCAR-3; type: cell-based; conditions: concentration corresponding to 50% growth inhibition, read-out: cytotoxicity GI50, Ovarian OVCAR-3
Method: as §1

[8] = test system: MDA-MB-435; test: NCI human cancer cell line screen, antiproliferative activity, Breast MDA-MB-435; type: cell-based; conditions: concentration corresponding to 50% growth inhibition, read-out: cytotoxicity GI50, Breast MDA-MB-435
Method: as §1

[9] = test system: HCT-116; test: NCI human cancer cell line screen, antiproliferative activity, Colon HCT-116; type: cell-based; conditions: concentration corresponding to 50% growth inhibition, read-out: cytotoxicity GI50, Colon HCT-116
Method: as §1

[10] = test system: UACC-62; test: NCI human cancer cell line screen, antiproliferative activity, Melanoma UACC-62; type: cell-based; conditions: concentration corresponding to 50% growth inhibition, read-out: cytotoxicity GI50, Melanoma UACC-62
Method: as §1

[11] = buffer, pH 7.4

Compound | GI50 [1] [µM] | MGM (mean graph midpoint for growth inhibition) [2] | MGM (mean graph midpoint for growth inhibition) ([2]; listed as brefeldin A) [µM] | GI50 [3] [µM] | GI50 [4] [µM] | GI50 [5] [µM] | solubility [6] [mg/mL] | GI50 [7] [µM] | GI50 [8] [µM] | GI50 [9] [µM] | GI50 [10] [µM] | half-life for the conversion of the sulfoxide to brefeldin A [11] [h]
C[C@H]1CCC/C=C/[C@@H]2C[C@H](O)C[C@H]2[C@H](O)/C=C/C(=O)O1 [Compound 1, Brefeldin A] | 0.09 | 0.041 µM and 0.040 µM | 0.040 | 0.13 | 0.07 | 0.04 | 2.8 (≈ 9.99 mM) | 0.032 | 0.041 | 0.029 | 0.022 | 
CC1CCCC=CC2CC(O)CC2C(O)[C@H](Sc2ccc(O)cc2)CC(=O)O1 (stereo partly drawn) [Compound 3, 2,3-Dihydro-(3R)-(4′-hydroxyphenylthio)brefeldin A] | 4.4 | 3.2 µM |  | 6.3 | 3.2 | 5.1 |  | 2.4 |  | 2.5 | 4.8 | 
CC1CCCC=CC2CC(O)CC2C(O)C(SCCN(C)C)CC(=O)O1 [Compound 4, 2,3-Dihydro-(3R)-(2′-N,N-dimethylaminoethylthiol)brefeldin A] | 1.4 | 0.68 µM |  | 2.4 |  | 0.39 | 10 (≈ 25.9 mM) |  | 0.5 | 0.75 | 0.43 | 
CC1CCCC=CC2CC(O)CC2C(O)C(SCCO)CC(=O)O1 [Compound 5, 2,3-Dihydro-(3R)-(2′-hydroxyethylthio)brefeldin A] | 33 | 20 µM |  | 30 | 34 | 23 | 12 (≈ 33.5 mM) | 27 | 34 | 19 | 40 | 
CC1CCCC=CC2CC(O)CC2C(O)[C@H](CC(=O)O)CC(=O)O1 (stereo partly drawn) [Compound 6, 2,3-Dihydro-(3R)-(carboxymethyl)brefeldin A] | 39 | 33 µM |  | 38 | 30 | 34 | 40 (≈ 118 mM) | 30 | 42 | 23 | 33 | 
COC(=O)CSC1CC(=O)OC(C)CCCC=CC2CC(O)CC2C1O [Compound 7, 2,3-Dihydro-(3R)-(methoxycarbonylmethylthiol)brefeldin A] | 32 | 17 µM |  | 30 | 28 | 24 |  | 27 | 30 | 19 |  | 
CC1CCCC=CC2CC(O)CC2C(O)[C@H](SCC(O)CO)CC(=O)O1 (stereo partly drawn) [Compound 8, 2,3-Dihydro (3R)-(2′,3′-dihydroxypropylthio) brefeldin A] | 34 | 23 µM |  | 18 | 33 | 32 |  | 22 | 36 | 36 | 16 | 
CC1CCCC=CC2CC(O)CC2C(O)C(SCCN)CC(=O)O1 [Compound 9, 2,3-Dihydro-(3R)-(2′)-aminoethylthio)brefeldin A] |  | 2.5 µM |  |  | 3.9 | 4.9 |  | 2.2 |  | 3.5 | 2.7 | 
COc1ccc(S[C@@H]2CC(=O)OC(C)CCCC=CC3CC(O)CC3C2O)cc1 (stereo partly drawn) [Compound 10, 2,3-Dihydro-(3R)-(4′-methoxyphenylthio)brefeldin A] | 30 | 31 µM |  | 36 | 24 | 26 |  | 22 | 19 | 33 | 29 | 
C[C@H]1CCC/C=C/[C@@H]2C[C@H](O)C[C@H]2[C@H](O)[C@@H](SC[C@H](N)C(=O)O)CC(=O)O1 [Compound 11, 2,3-Dihydro-(3R)-(S-L-cysteinyl)brefeldin A] |  |  |  |  |  |  | 35 (≈ 87.2 mM) |  |  |  |  | 
COC(=O)CC[S+]([O-])C1CC(=O)OC(C)CCCC=CC2CC(O)CC2C1O [Compound 13, 2,3-Dihydro-(3R)-(2′-methoxycarbonylethylsulfinyl)brefeldin A] |  |  |  |  |  |  |  |  |  |  |  | 87.4
C[C@H]1CCC/C=C/[C@@H]2C[C@H](O)C[C@H]2[C@H](O)[C@H]([S+]([O-])c2ccc(O)cc2)CC(=O)O1 (stereo partly drawn) [Compound 14, 2,3-Dihydro-(3R)-(4′-hydroxyphenylsulfinyl)brefeldin A] | 0.05 | 0.037 µM |  | 0.118 | 0.088 | 0.017 |  | 0.025 | 0.042 | 0.026 | 0.03 | 
CC1CCCC=CC2CC(O)CC2C(O)[C@H]([S+]([O-])CCO)CC(=O)O1 (stereo partly drawn) [Compound 15, 2,3-Dihydro-(3R)-(2′-hydroxyethylsulfinyl)brefeldin A] | 0.65 | 0.11 µM |  | 0.26 | 0.29 | 0.058 |  | 0.19 | 0.09 | 0.21 | 0.064 | 4.81
CC1CCCC=CC2CC(O)CC2C(O)[C@H]([S+]([O-])CCN)CC(=O)O1 (stereo partly drawn) [Compound 18, 2,3-Dihydro-(3R)-(2′-aminoethylsulfinyl)brefeldin A] | 0.12 | 0.055 µM |  | 0.17 | 0.15 | 0.02 |  | 0.082 | 0.055 | 0.086 | 0.021 | 
C[C@H]1CCC/C=C/[C@@H]2C[C@H](O)C[C@H]2[C@@H](O)[C@H]([S+]([O-])CCN(C)C)CC(=O)O1 (stereo partly drawn) [Compound 20, 2,3-Dihydro-(3R)-[21-N,N-(dimethylamino)ethylsulfinyl]brefeldin A] | 0.15 | 0.20 µM |  | 0.48 | 0.35 | 0.3 |  | 0.14 | 0.41 | 0.28 | 0.071 | 
CC1CCCC=CC2CC(O)CC2C(O)C([S+]([O-])C[C@H](N)C(=O)O)CC(=O)O1 (stereo partly drawn) [Compound 21, 2,3-Dihydro-(3R)-(S-L-cysteinyl)brefeldin A Sulfoxide] | 0.16 | 0.096 µM |  | 0.43 | 0.7 | 0.038 |  | 0.039 | 0.05 | 0.091 | 0.038 | 
C[C@H]1CCC/C=C/[C@@H]2C[C@H](OC(=O)CCC(=O)O)C[C@H]2[C@H](OC(=O)CCC(=O)O)/C=C/C(=O)O1 [Compound 24, Brefeldin A Disuccinate] | > 100 | 89 µM |  | > 100 | > 100 | > 100 |  | > 100 | > 100 | > 100 | > 100 | 
CC1CCCC=CC2CC(OC(=O)CCCC(=O)O)CC2C(OC(=O)CCCC(=O)O)C=CC(=O)O1 (stereo not shown) [Compound 25, Brefeldin A Diglutarate] | > 100 | 98 µM |  | > 100 | > 100 | > 100 |  | > 100 | > 100 | > 100 | > 100 | 
CC1CCCC=CC2CC(O)CC2C(O)C(O)C(O)C(=O)O1 (stereo not shown) [Compound 26, 2,3-Dihydro-2,3-dihydroxybrefeldin A] | 2.7 | 3.0 µM and 2.3 µM |  | 6.7 | 5 | 0.68 |  | 2.4 | 3.8 |  | 1.6 | 
COC(=O)CS(=O)(=O)[C@@H]1CC(=O)OC(C)CCCC=CC2CC(O)CC2C1O (stereo partly drawn) [Compound 27, 2,3-Dihydro(3R)-(methoxycarbonylmethylsulfonyl)brefeldin A] |  | 3.5 µM |  | 6 | 5.1 |  |  | 3.2 | 5.5 | 3.7 | 5 | 
Brefeldin A 8 0-Glutarate [Compound 23] | 32 | 13 µM |  | 30 | 33 | 22 |  | 20 | 11 | 21 |  | 
Brefeldin A 8 0-Succinate [Compound 22] |  | 2.5 µM |  |  |  |  |  |  |  |  |  | 
